Test results from US20230106583A1, “HETEROARYL COMPOUNDS” (Vivace Therapeutics, Inc., priority 2019, published 2023).

system: HEK293T cells stably transfected with 8XTBD luciferase reporter and pRLTK; assay: YAP Reporter Assay (8XTBD-driven firefly luciferase); assay type: cell-based; details: Homo sapiens, HEK-293T; HEK293T 8XTBD luciferase reporter; 24-hr incubation with compounds; top concentration 3 μM, 10 points
Procedure: HEK293T cells stably transfected with 8XTBD luciferase reporter and pRLTK in 384-well plates were treated with the test compounds, starting from 3 μM (final concentration in assay plate), 1:3 dilution, and 10 points in quadruplicates. Post 24-hr incubation with compounds at 37° C. and 5% CO2, cells were lysed and 8XTBD-driven firefly luciferase and control TK-driven renilla luciferase activities were measured using Promega Dual-Luciferase Reporter Assay System.
Reagents: The reagents used for this study are: DMEM: Invitrogen #11960077, Dual-Glo Luciferase Assay System: Promega-E2980, Puromycin Dihydrochloride: Invitrogen-A1113803, 384-well plate: PerkinElmer-6007480, L-GLUTAMINE: Invitrogen-25030164, Hygromycin B: Invitrogen-10687010, and Penicillin-Streptomycin: Merk-TMS-AB2-C
Media: The media used for this assay were: Culture Medium: DMEM+1 ug/mL puromycin+200 ug/mL hygromycin (with 10% FBS+1 mM L-glutamine); and Assay Medium: DMEM (with 10% FBS+1 mM L-glutamine+1×P/S).
Cell Plating: The appropriate media was warmed at 37° C. by water bath: Culture Medium, Assay Medium, 1*D-PBS, 0.05% trypsin-EDTA. The cells were trypsinized after removing all media, then washed with 1*sterile D-PBS and then with 2 ml 0.05% trypsin-EDTA. The cells were then incubated at RT for one minute. Then 10 ml/75 cm2 flask Assay Medium was added to each flask. Using a 10 ml pipette, the cells were then gently resuspended in the media, until the clumps completely disappeared. The cells were then transferred into 50 ml centrifuge tubes and were centrifuged at 800 rpm for 5 mins. The medium was removed and the cells were resuspended with Assay Medium. An aliquot of cells was used to count the cell density (cells/ml). The cell suspension was then diluted with Assay Medium to a concentration of 6×10^4 cells/ml. 50 ul cells suspension was then plated to 384-well plate (PerkinElmer-6007480), 3×10^3 cells/well and the cells were incubated in an incubator at 37° C., 5% CO2.
Compound Treatment: In the afternoon (incubation of the plate with 3-4 hrs), the test compounds were added by Echo, starting from 3 uM (final concentration in the assay plate), 1:3 dilution, 10 points, quadruplicates. The plate was placed at 37° C., 5% CO2 incubator for 24 hrs.
Detection: The Dual-Glo Luciferase Reagent was prepared by transferring the contents of one bottle of Dual-Glo Luciferase Buffer to one bottle of Dual-Glo Luciferase Substrate to create the Dual-Glo Luciferase Reagent. Mixing was performed by inversion until the substrate was thoroughly dissolved. After mixing, the reagent was aliquoted into 15 ml tubes. In the afternoon (24 hrs post compound treatment), the DMEM+medium in the 384 well plates were aspirated by Microplate Washer.
Measuring firefly luciferase activity: 20 ul Dual-Glo Luciferase Reagent was added to the 384-well plates. The plates were protected from light to prevent interference with the assay. The plates were shaken for 1 min followed centrifuging plates at 1000 rpm for 30 seconds. After waiting at least 10 minutes, the firefly luminescence was measured by Envision.
Measuring renilla luciferase activity: 20 ul Stop-Glo Reagent was added to the 384-well plates. The plates were shaken for 1 min and then centrifuged at 1000 rpm for 30 seconds. After waiting at least 10 minutes, the renilla luminescence was measured by Envision.
Compound IC50 and maximum inhibition on the firefly luciferase and renilla luciferase activities were reported separately.

SMILES	IC50 [nM]
C[C@@]1(c2nnc(-c3cccnc3Nc3ccc(S(F)(F)(F)(F)F)cc3)o2)CCCNC1=O [Compound 30, (3S)-3-methyl-3-[5-[2-[4-(pentafluoro-λ^6-sulfanyl)anilino]-3-pyridyl]-1,3,4-oxadiazol-2-yl]piperidin-2-one]	100 to 1000
C[C@@]1(c2nnc(-c3cccnc3Nc3ccc(C(F)(F)F)cc3)o2)CCCNC1=O [Compound 39, (S)-3-methyl-3-(5-(2-((4-(trifluoromethyl)phenyl)amino)pyridin-3-yl)-1,3,4-oxadiazol-2-yl)piperidin-2-one]	≤ 100
CC[C@@]1(c2nnc(-c3cccnc3Nc3ccc(S(F)(F)(F)(F)F)cc3)o2)CCNC1=O [Compound 24, (3S)-3-ethyl-3-[5-[2-[4-(pentafluoro-λ^6-sulfanyl)anilino]-3-pyridyl]-1,3,4-oxadiazol-2-yl]pyrrolidin-2-one]	≤ 100
CC[C@@]1(c2nnc(-c3cccnc3Nc3ccc(C(F)(F)F)cc3)o2)CCCNC1=O [Compound 31, (3S)-3-ethyl-3-[5-[2-[4-(trifluoromethyl)anilino]-3-pyridyl]-1,3,4-oxadiazol-2-yl]piperidin-2-one]	100 to 1000
CC1(c2nnc(-c3nccnc3Nc3ccc(C(F)(F)F)cc3)o2)CCNC1=O (stereo not drawn) [Compound 20, 3-methyl-3-{5-[3-(4-trifluoromethyl-phenylamino)-pyrazin-2-yl]-[1,3,4]oxadiazol-2-yl}-pyrrolidin-2-one]	≤ 100
C[C@@]1(n2nnc(-c3cccnc3Nc3ccc(C(F)(F)F)cc3)n2)CCNC1=O [Compound 43, (3R)-3-methyl-3-[5-[2-[4-(trifluoromethyl)anilino]-3-pyridyl]tetrazol-2-yl]pyrrolidin-2-one]	≤ 100
C[C@]1(c2nnc(-c3cccnc3Nc3ccc(S(F)(F)(F)(F)F)cc3)o2)CCNC1=O [Compound 35, (3R)-3-methyl-3-[5-[2-[4-(pentafluoro-λ^6-sulfanyl)anilino]-3-pyridyl]-1,3,4-oxadiazol-2-yl]pyrrolidin-2-one]	100 to 1000
CCN(C#N)Cc1nnc(-c2cccnc2Nc2ccc(C(F)(F)F)cc2)o1 [Compound 5, ethyl-[[5-[2-[4-(trifluoromethyl)anilino]-3-pyridyl]-1,3,4-oxadiazol-2-yl]methyl]cyanamide]	≤ 100
CC[C@]1(c2nnc(-c3cccnc3Nc3ccc(C(F)(F)F)cc3)o2)CCNC1=O [Compound 33, (3R)-3-ethyl-3-[5-[2-[4-(trifluoromethyl)anilino]-3-pyridyl]-1,3,4-oxadiazol-2-yl]pyrrolidin-2-one]	≤ 100
